Read-outs that look alike come from different tables or passages of the source. Positions of bridges follow the written chain, without caps; N, C: chain ends. Non-standard residues stand in square brackets, D forms with d. Residues, ends and D or L forms follow the SMILES beside them. Sec = N[C@@H](C[SeH])C(=O)O

The test concerns the target T1, Natriuretic Peptide Receptor-A (NPR-A) signaling in MDCK cells (Canis lupus familiaris, UniProt A0A8I3MHU3).
T1 sequence (A0A8I3MHU3 32-1060): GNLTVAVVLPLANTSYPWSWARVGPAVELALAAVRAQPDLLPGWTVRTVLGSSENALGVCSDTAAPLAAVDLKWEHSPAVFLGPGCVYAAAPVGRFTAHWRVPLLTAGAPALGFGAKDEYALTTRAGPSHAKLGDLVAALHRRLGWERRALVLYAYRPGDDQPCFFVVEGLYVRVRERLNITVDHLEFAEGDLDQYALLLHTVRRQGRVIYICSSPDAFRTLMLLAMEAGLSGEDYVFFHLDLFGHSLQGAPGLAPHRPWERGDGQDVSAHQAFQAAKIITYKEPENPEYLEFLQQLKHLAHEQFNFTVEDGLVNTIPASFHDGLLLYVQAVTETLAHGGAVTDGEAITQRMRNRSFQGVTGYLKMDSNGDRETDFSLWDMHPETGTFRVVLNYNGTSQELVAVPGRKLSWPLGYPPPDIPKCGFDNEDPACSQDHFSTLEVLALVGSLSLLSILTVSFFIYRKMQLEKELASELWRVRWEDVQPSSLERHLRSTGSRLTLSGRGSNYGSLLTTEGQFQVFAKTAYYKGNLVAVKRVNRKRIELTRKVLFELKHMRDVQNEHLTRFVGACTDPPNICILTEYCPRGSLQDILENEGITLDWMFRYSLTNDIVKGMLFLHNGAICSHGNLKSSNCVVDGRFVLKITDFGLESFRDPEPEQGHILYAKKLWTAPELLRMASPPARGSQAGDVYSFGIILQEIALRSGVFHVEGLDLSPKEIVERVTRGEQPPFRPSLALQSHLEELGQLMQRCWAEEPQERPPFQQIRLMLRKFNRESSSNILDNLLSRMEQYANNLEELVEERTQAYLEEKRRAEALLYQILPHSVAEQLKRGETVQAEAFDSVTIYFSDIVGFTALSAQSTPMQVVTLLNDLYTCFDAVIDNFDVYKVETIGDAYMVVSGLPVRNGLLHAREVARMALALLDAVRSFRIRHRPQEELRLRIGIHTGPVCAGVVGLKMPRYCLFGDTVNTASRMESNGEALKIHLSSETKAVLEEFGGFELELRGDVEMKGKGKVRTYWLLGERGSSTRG
The test is classed as cell-based, canine. As to conditions: for EC50: read-out: EC50 (M) ± Standard Error.

[1] abbreviates: stimulation of cGMP accumulation in MDCK cells.

Regarding `CC[C@H](C)[C@H](NC(=O)[C@H](CCCCN)NC(=O)[C@H](CO)NC(=O)[C@H](CC(=O)O)NC(=O)[C@@H](N)CO)C(=O)NCC(=O)N[C@@H](CC(=O)O)C(=O)NCC(=O)N[C@H]1CSSC[C@@H](C(=O)N[C@@H](CC(N)=O)C(=O)N[C@@H](CCCNC(=N)N)C(=O)N[C@H](C(=O)N[C@@H](CCSC)C(=O)N[C@@H](CCC(N)=O)C(=O)N[C@@H](CC(N)=O)C(=O)N2CCC[C@H]2C(=O)N2CCC[C@H]2C(=O)N[C@@H](CCCCN)C(=O)N[C@@H](CCCCN)C(=O)N[C@@H](Cc2ccccc2)C(=O)N[C@@H](CO)C(=O)NCC(=O)N[C@@H](CCC(=O)O)C(=O)O)[C@@H](C)CC)NC(=O)CNC(=O)[C@H](CC(C)C)NC(=O)CNC(=O)[C@H](CO)NC(=O)[C@H](C(C)C)NC(=O)[C@H](CO)NC(=O)CNC(=O)[C@H]([C@@H](C)CC)NC(=O)[C@H](CCCNC(=N)N)NC(=O)[C@H](CC(=O)O)NC(=O)[C@H](CC(C)C)NC(=O)[C@@H]2CCCN2C(=O)[C@H](Cc2ccccc2)NC(=O)CNC(=O)[C@H](Cc2ccccc2)NC1=O` [Peptide N7D-TNPc] (H-SDSKIGDGCFGFPLDRIGSVSGLGCNRIMQNPPKKFSGE-OH; disulfide 9-25; N-terminus assumed), under setting [1], the “−Log10 EC50 (pEC50) ± Standard Error” value is 7.585 ± 0.005 and the concentration giving a half-maximal response (EC50) was 2.62e-08 M.

On to `CC[C@H](C)[C@H](NC(=O)[C@H](CCCCN)NC(=O)[C@H](CO)NC(=O)[C@H](CC(=O)O)NC(=O)[C@@H](N)CO)C(=O)NCC(=O)N[C@@H](CC(N)=O)C(=O)NCC(=O)N[C@H]1CSSC[C@@H](C(=O)N[C@@H](CC(N)=O)C(=O)N[C@@H](CCCNC(=N)N)C(=O)N[C@H](C(=O)N[C@@H](CCSC)C(=O)N[C@@H](CCC(N)=O)C(=O)N[C@@H](CC(N)=O)C(=O)N[C@@H](CCCNC(=N)N)C(=O)N2CCC[C@H]2C(=O)N[C@@H](CCCCN)C(=O)N[C@@H](CCCCN)C(=O)N[C@@H](Cc2ccccc2)C(=O)N[C@@H](CO)C(=O)NCC(=O)N[C@@H](CCC(=O)O)C(=O)O)[C@@H](C)CC)NC(=O)CNC(=O)[C@H](CC(C)C)NC(=O)CNC(=O)[C@H](CO)NC(=O)[C@H](C(C)C)NC(=O)[C@H](CO)NC(=O)CNC(=O)[C@H]([C@@H](C)CC)NC(=O)[C@H](CCCNC(=N)N)NC(=O)[C@H](CC(=O)O)NC(=O)[C@H](CC(C)C)NC(=O)[C@@H]2CCCN2C(=O)[C@H](Cc2ccccc2)NC(=O)CNC(=O)[C@H](Cc2ccccc2)NC1=O` [Peptide P32R-TNPc] (H-SDSKIGNGCFGFPLDRIGSVSGLGCNRIMQNRPKKFSGE-OH; disulfide 9-25; N-terminus assumed), for which, under setting [1], the “−Log10 EC50 (pEC50) ± Standard Error” value amounted to 7.680 ± 0.5322 and the half-maximal effective concentration (EC50) was determined as 9.91e-08 M.

On to `CC[C@H](C)[C@H](NC(=O)[C@H](CCCCN)NC(=O)[C@H](CO)NC(=O)[C@H](CC(=O)O)NC(=O)[C@@H](N)CO)C(=O)NCC(=O)N[C@@H](CC(N)=O)C(=O)NCC(=O)N[C@H]1C[Se][Se]C[C@@H](C(=O)N[C@@H](CC(N)=O)C(=O)N[C@@H](CCCNC(=N)N)C(=O)N[C@H](C(=O)N[C@@H](CCSC)C(=O)N[C@@H](CCC(N)=O)C(=O)N[C@@H](CC(N)=O)C(=O)N2CCC[C@H]2C(=O)N2CCC[C@H]2C(=O)N[C@@H](CCCCN)C(=O)N[C@@H](CCCCN)C(=O)N[C@@H](Cc2ccccc2)C(=O)N[C@@H](CO)C(=O)NCC(=O)N[C@@H](CCC(=O)O)C(=O)O)[C@@H](C)CC)NC(=O)CNC(=O)[C@H](CC(C)C)NC(=O)CNC(=O)[C@H](CO)NC(=O)[C@H](C(C)C)NC(=O)[C@H](CO)NC(=O)CNC(=O)[C@H]([C@@H](C)CC)NC(=O)[C@H](CCCNC(=N)N)NC(=O)[C@H](CC(=O)O)NC(=O)[C@H](CC(C)C)NC(=O)[C@@H]2CCCN2C(=O)[C@H](Cc2ccccc2)NC(=O)CNC(=O)[C@H](Cc2ccccc2)NC1=O` [Sec2-TNPc] (H-SDSKIGNG[Sec]FGFPLDRIGSVSGLG[Sec]NRIMQNPPKKFSGE-OH; diselenide 9-25), for which the “−Log10 EC50 (pEC50) ± Standard Error” value was found to be 7.463 ± 0.4096 and the concentration for a half-maximal effect (EC50) stood at 6.39e-08 M.

The values above are taken from patent US8058242B2, “Chimeric proteins with natriuretic activity” (The University of Queensland, priority 2004, dated 2011).
